Data published in patent publication US20070197453A1, “Compositions and methods for treatment of disorders of protein aggregation” (priority 2006, published 2007).
Entries after “also recorded” stand apart in the source; their conditions may differ. Marks after values point to notes of the source that are not given here.

Tests used:
TgCRND8 mice [1] = assay: Morris Water Maze spatial reference memory test; format: in vivo, mouse
Description: (§1) Behavioural tests: Morris Water Maze testing was performed as previously described. After non-spatial pre-training, mice underwent place discrimination training for 5 days with 4-trials per day, followed by a cued visible platform to rule out general motivational, learning deficits and motor problems, and a probe trial to evaluate memory. […] Open field test for motor activity was preformed as described previously. Duration of walking, pausing and grooming were analyzed as indices of spontaneous locomotor activity. Sensorimotor function was examined with an Economex™ accelerating rotarod (Columbus Instruments, Columbus, Ohio), as described elsewhere. The rod was set to accelerate at a rate of 0.2 r.p.m./s, from an initial, constant speed of 5 r.p.m. Latency to fall was recorded in four daily trials, conducted at 30 min intervals. All mice were trained for seven days before testing. The test day performance score for each animal was obtained by summing its latency to fall over the four trials
Behavioural tests: Behavioural analyses were performed using the Morris Water Maze test (13, 14). After pre-spatial training, mice underwent place discrimination training for 5 days with 4 trials per day, followed by a cued visible platform to rule out general motivational, learning deficits and motor problems. […] Open field test for motor activity was performed as described previously. Duration of walking, pausing, rearing and grooming were analyzed as indices of spontaneous locomotor activity.

Aβ40 = target: T1, Aβ40 (Homo sapiens, UniProt P05067); assay: Cerebral Aβ content: brain Aβ40 (ELISA kit); format: in vivo, mouse; conditions: TgCRND8 mice with pre-existing disease; 28 day treatment from 5 months of age
T1 construct: from tissue; host or cells: hemi-brain homogenate of TgCRND8 transgenic mice
Description: (§2) Plasma and Cerebral Aβ Content. Hemi-brain samples were homogenized in a buffered sucrose solution, followed by either 0.4% diethylamine/100 mM NaCl for soluble Aβ levels or cold formic acid for the isolation of total Aβ. After neutralization, the samples were diluted and analyzed for Aβ40 and Aβ42 using commercially available kits (BIOSOURCE International). Each hemisphere was analyzed in triplicate and the mean values±SEM reported. Western blot analyses were performed on all fractions using urea gels for Aβ species analyses. Aβ was detected using 6E10 (BIOSOURCE International) and Enhanced Chemiluminenscence (Amersham).
(§3) Cerebral Aβ Content. Hemi-brain samples were homogenized in a buffered sucrose solution, followed by either 0.4% diethylamine/100 mM NaCl for soluble Aβ levels or cold formic acid for the isolation of total Aβ [22]. After neutralization the samples were diluted and analyzed for Aβ40 and Aβ42 using commercially available kits (BIOSOURCE International). Each hemisphere was analyzed in triplicate with the mean±SEM reported. Plasma was diluted and run directly on the ELISA.

TgCRND8 mice [2] = assay: Cerebral amyloid plaque burden (anti-Aβ immunostaining, image analysis); format: in vivo, mouse
Description: (§4) Cerebral amyloid burden. Brains were removed and one hemisphere was fixed in 4% paraformaldehyde and embedded in paraffin wax in the mid sagittal plane. To generate sets of systematic uniform random sections, 5 μm serial sections were collected across the entire hemisphere. Sets of sections at 50 μm intervals were used for analyses (10-14 sections/set). Plaques were identified after antigen retrieval with formic acid, and incubation with primary anti-Aβ antibody (Dako M-0872), followed by secondary antibody (Dako StreptABCcomplex/horseradish kit). End products were visualized with DAB and were counter-stained with luxol fast blue. Amyloid plaque burden was assessed with Leco IA-3001 image analysis software interfaced with Leica microscope and Hitachi KP-M1U CCD video camera. Openlab imaging software (Improvision, Lexington, Mass.) was then used to convert micrographs to binary images for plaque number and plaque area determinations. Vascular amyloid burden was defined as amyloid originating from or surrounding blood vessels and was analysed similarly.

TgCRND8 mice [3] = assay: Vascular amyloid burden; format: in vivo, mouse; conditions: compared to untreated and epi-inositol treated
Description: as §4

[4] = tested on: LTP in mouse hippocampal slices; assay: Long term potentiation in hippocampal slices with 7PA2 conditioned medium; format: cell-based; conditions: compound treated culture media from plain CHO cells
Description: Long Term Potentiation. […] Swiss Webster mice between the ages of P16 and P26 were anesthetized with isoflurane. […] The hippocampus from each hemisphere was isolated and 350 μm coronal sections were made. […] Once placed in the chamber, slices were continuously perfused by a closed loop containing 15 ml of ACSF to conserve the oligomeric Aβ. […] A bipolar stimulating electrode (World Precision Inst.) was placed in the Schaffer collaterals to deliver baseline stimuli and tetani. A borosilicate glass recording electrode (2-4 MΩ) containing ACSF was positioned approximately 75-200 μm from the stimulating electrode. […] Test stimuli were delivered at 0.05 Hz. To induce LTP, 4 tetani (100 Hz for 1 second) were delivered 5 minutes apart. Field potential responses were amplified 10× using an Axopatch 200B. The data was sampled at 10 kHz and filtered at 2 kHz. Traces were analyzed using pClamp 9.2. The slope of the field potential was estimated using approximately 10-60% of the total response.

TgTauP301L mice = assay: Synaptophysin reactivity in TgTauP301L mice; format: in vivo, mouse; conditions: TgTauP301L mice after treatment
Description: Synaptophysin immunohistochemical staining was performed on 3 evenly spaced saggital sections of paraformaldehyde-fixed treated and control mice. Sections were immunolabelled for synaptophysin with anti-synaptophysin IgG (1:40; Roche, Laval, PQ). Digital images were captured and analyzed as described above. Within each section, three randomly chosen 100 μm^2 areas of the CA1 region of the hippocampus were counted for synaptophysin reactive cell bodies and boutons. The results are expressed as the mean of the number of reactive bodies and boutons per 100 μm^2 [29, 30].

TgCRND8 mice [5] = assay: Gliosis quantitation (GFAP astrocytes, CD68 microglia); format: in vivo, mouse
Description: Gliosis Quantitation. Five randomly selected, evenly spaced, sagittal sections were collected from paraformaldehyde-fixed and frozen hemispheres of treated and control mice. Sections were immunolabelled for astrocytes with anti-rat GFAP IgG2a (Dako; diluted 1:50) and for microglia with anti-rat CD68 IgG2b (Dako; 1:50). Digital images were captured using a Coolsnap digital camera (Photometrics, Tuscon, Ariz.) mounted to a Zeiss, Axioscope 2 Plus microscope. Images were analysed using Openlab 3.08 imaging software (Improvision, Lexington Mass.).

TgCRND8 mice [6] = assay: Survival census (Kaplan-Meier); format: in vivo, mouse; conditions: compared to untreated TgCRND8 mice
Description: Survival Census: The probability of survival was assessed by the Kaplan-Meier technique, computing the probability of survival at every occurrence of death, thus making it suitable for small sample sizes. For the analyses of survival, 35 mice were used for each treatment group. The Tarone-Ware test was used to assess effects of treatments.
Survival Census: The probability of survival was assessed by the Kaplan-Meier technique computing the probability of survival at every occurrence of death, thus making it suitable for small sample sizes. For the analyses of survival, 30 mice were used for each treatment group. The Tarone-Ware test was used to assess effects of treatments.

TgCRND8 mice [7] = assay: Accelerating rotarod sensorimotor function; format: in vivo, mouse; conditions: treated versus untreated TgCRND8 mice
Description: as §1

Aβ42 [8] = target: T2, Aβ42 (Homo sapiens, UniProt P05067); assay: Plasma Aβ42 levels; format: in vivo, mouse; design: from tissue; host or cells: plasma of TgCRND8 transgenic mice; conditions: TgCRND8 mice following 28 days of therapy at five months of age
Description: as §2, §3
Target sequence in this assay (P05067 672-713): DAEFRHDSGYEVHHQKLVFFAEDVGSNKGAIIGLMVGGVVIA

Aβ42 [9] = target: T2, Aβ42; assay: Cerebral Aβ content: brain Aβ42 (ELISA kit); format: in vivo, mouse; design: from tissue; host or cells: hemi-brain homogenate of TgCRND8 transgenic mice; conditions: TgCRND8 mice with pre-existing disease; 28 day treatment from 5 months of age
Description: as §2, §3
Target sequence in this assay (P05067 672-713 limits assumed): as the sequence (P05067 672-713) above

[10] = six month old TgCRND8 mice, 28 days of oral treatment beginning at five months of age
[11] = TgCRND8 mice, 4-month Prophylactic (oral from 6 weeks to 4 months of age)
[12] = TgCRND8 mice, 6-month Prophylactic (oral from 6 weeks to 6 months of age)
[13] = TgCRND8 mice, 28 day course at 5 months of age, vs untreated
[14] = TgCRND8 mice, oral treatment for 28 days (1 month) from 5 months of age, analysed at 6 months

T1 sequence (P05067 672-711): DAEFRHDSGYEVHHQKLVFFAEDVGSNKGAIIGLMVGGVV

SMILES: O[C@H]1[C@H](O)[C@@H](O)[C@H](O)[C@@H](O)[C@@H]1O [scyllo-cyclohexanehexol, 1,3,5/2,4,6-(scyllo-)cyclohexanehexol]
- effects on cognition and pathology (TgCRND8 mice [1]; TgCRND8 mice, administered for 2 months, ending at 7 months of age): Sustained effects both on cognition and pathology were observed
- Non-Tg littermate behaviour under treatment (TgCRND8 mice [1]; mouse, in vivo): not affected
- cognition compared to non-Tg mice (TgCRND8 mice [1]; prophylactic treatment, four months of age): approached that of non-Tg mice
- probe trial, % time in target quadrant (TgCRND8 mice [1]; separate cohort of TgCRND8 mice, compared to non-Tg littermates, data not shown): not statistically different from non-Tg littermates
- spatial reference memory performance compared to non-Tg littermates (TgCRND8 mice [1]; [10]): indistinguishable from that of their non-Tg littermates
- spatial reference memory performance compared to untreated TgCRND8 littermates (TgCRND8 mice [1]; [10]): significantly better behavioural performance compared to untreated TgCRND8 mice; also recorded: significantly better than untreated TgCRND8 littermates
- effect on brain Aβ40 levels (Aβ40): reduced brain levels of Aβ40 and Aβ42
- amyloid (plaque) burden, immunostaining (TgCRND8 mice [2]; TgCRND8 mice at six months of age, hippocampus and cerebral cortex): significantly decreased amyloid burden and gliosis
- plaque burden (percent area of the brain covered with plaques, plaque number) (TgCRND8 mice [2]; TgCRND8 mice with pre-existing disease, one month treatment from 5 months of age): lower plaque burden
- Mean Plaque Size (TgCRND8 mice [2]; [11]): 103 ± 4* μm^2
- Total Plaque Area (TgCRND8 mice [2]; [11]): 63847 ± 2895 μm^2
- Mean Plaque Size (TgCRND8 mice [2]; [12]): 339 ± 10† μm^2
- Total Plaque Area (TgCRND8 mice [2]; [12]): 262379 ± 5373† μm^2
- percent area of the brain covered by plaques reduction (TgCRND8 mice [2]; [13]): 14±0.5%
- plaque number reduction (TgCRND8 mice [2]; [13]): 13±0.3%
- plaque size reduction (TgCRND8 mice [2]; [13]): 16±0.4%
- Mean Plaque Size (TgCRND8 mice [2]; [14]): 336 ± 6* μm^2
- Total Plaque Area (TgCRND8 mice [2]; [14]): 420027 ± 14986* μm^2
- total vascular Aβ load (TgCRND8 mice [3]): significantly decreased the total vascular load
- direct effect on LTP [4]: no direct effect on LTP
- synaptophysin reactivity (TgTauP301L mice): unchanged
- percent brain area covered with microgliosis (TgCRND8 mice [5]; TgCRND8 mice): decreased the percent brain area covered with microgliosis
- astrogliosis / gliosis, anti-GFAP immunostaining (TgCRND8 mice [5]; TgCRND8 mice at six months of age): significantly decreased amyloid burden and gliosis
- percent brain area covered in astrogliosis (TgCRND8 mice [5]; TgCRND8 mice, 4- and 6-months of age): decreased the astrogliotic response to a greater extent at both ages
- Kaplan Meier cumulative survival (TgCRND8 mice [6]): increased survival
- Rotarod sensorimotor function (TgCRND8 mice [7]): no difference
- Plasma Aβ42 levels (Aβ42 [8]): 990 ± 73 pg/mL
- effect on brain Aβ42 levels (Aβ42 [9]): reduced brain levels of Aβ40 and Aβ42
